Patent publication US8993577B2, “Cyclopropyl amide derivatives” (Astrazeneca AB, priority 2009, dated 2015)

target: T1, human Histamine H3 receptor (hH3R) (Homo sapiens, UniProt Q9Y5N1); experiment: GTPγS binding assay, antagonist activity in membranes of CHO cells expressing hH3R; type: biochemical; settings: membranes from CHO cells transfected with hH3R; (R)-α-methyl histamine 30 nM; [35S]GTPγS 0.2 nM
T1 construct: expressed in transfected cells; host or cells: CHO (Chinese Hamster Ovary) cells; membranes
T1 sequence (Q9Y5N1 whole entry): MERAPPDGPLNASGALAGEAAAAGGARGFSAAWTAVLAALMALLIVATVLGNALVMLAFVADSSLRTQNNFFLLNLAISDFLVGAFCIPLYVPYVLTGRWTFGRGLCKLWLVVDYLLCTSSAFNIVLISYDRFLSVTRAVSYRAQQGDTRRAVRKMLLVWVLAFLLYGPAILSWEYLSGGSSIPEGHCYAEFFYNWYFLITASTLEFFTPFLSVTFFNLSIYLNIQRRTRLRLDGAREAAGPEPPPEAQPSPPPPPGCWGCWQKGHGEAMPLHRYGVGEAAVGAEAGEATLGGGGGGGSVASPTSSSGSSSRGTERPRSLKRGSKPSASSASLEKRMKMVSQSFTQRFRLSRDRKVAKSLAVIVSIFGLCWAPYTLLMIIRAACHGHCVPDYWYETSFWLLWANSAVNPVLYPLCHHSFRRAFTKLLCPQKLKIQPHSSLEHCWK
Description: At least one compound of at least one formula described herein including the compounds described in the Examples hereof, when tested in at least one in vitro assay as substantially described below is active towards H3 receptors. Particularly, at least one compound described herein is an effective H3 receptor ligand. The in vitro activity may be related to in vivo activity but may not be linearly correlated with binding affinity. In the in vitro assay, a compound can be tested for its activity toward H3 receptors and IC50 obtained to determine the activity for a particular compound toward the H3 receptor.
Guanosine 5′-O-(3-[^35S]thio)triphosphate [GTPγS] Binding Assay
A GTPγS binding assay can be used to investigate antagonist properties of compounds in CHO cells (Chinese Hamster Ovary) transfected with human Histamine H3 receptor (hH3R). Membranes from CHO cells expressing hH3R (10 μg/well) are diluted in GTPγS assay buffer (20 mM Hepes, 10 mM MgCl2, 100 mM NaCl, pH 7.4) and preincubated with saponine (3 μg/ml), GDP (10 μM) and PVT-WGA SPA beads (125 μg/well) (Amersham) for 30 minutes. To determine antagonist activity, (R)-α-methyl histamine (30 nM) is added in 96 well SPA plate with [^35S]GTPγS (0.2 nM) and various concentration of H3R antagonists. The GTPγS binding assay is started with addition of the mixture membrane/saponine/GDP and incubated for 90 minutes at room temperature. The amount of bound [^35S]GTPγS is determined by using the MicroBeta Trilux counter (PerkinElmer). The percentage of [^35S]GTPγS bound in each sample is calculated as a percentage of that bound control sample incubated in absence of H3 antagonist. Duplicate determinations are obtained for each concentration, and the data are analyzed using ExcelFit4 to obtain the IC50.
Set forth in Table 1 hereinbelow for the Example 1-34 compounds are IC50 values that were generated in accordance with the GTPγS Binding Assay as essentially described hereinabove.

Molecule | IC50 [nM]
3-((trans)-2-((R)-4-cyclobutyl-2-methylpiperazine-1-carbonyl)cyclopropyl)benzamide, isomer 2 [Example 29] | 576
3-((trans)-2-((S)-4-cyclobutyl-2-methylpiperazine-1-carbonyl)cyclopropyl)benzamide, isomer 2 [Example 32] | > 1110
4-((trans)-2-((R)-4-cyclobutyl-2-methylpiperazine-1-carbonyl)cyclopropyl)benzamide, isomer 2 [Example 9] | 121
4-((trans)-2-((R)-4-cyclobutyl-3-methylpiperazine-1-carbonyl)cyclopropyl)benzamide, isomer 2 [Example 22] | 1010
4-((trans)-2-((S)-4-cyclobutyl-2-methylpiperazine-1-carbonyl)cyclopropyl)benzamide, isomer 2 [Example 12] | 1320
4-((trans)-2-((S)-4-cyclobutyl-3-methylpiperazine-1-carbonyl)cyclopropyl)benzamide, isomer 2 [Example 19] | 1270
4-(trans-2-(4-cyclobutyl-3,3-dimethylpiperazine-1-carbonyl)cyclopropyl)benzamide, enantiomer 2 [Example 26] | > 1110
4-(trans-2-((R)-4-cyclobutyl-2-ethylpiperazine-1-carbonyl)cyclopropyl)benzamide, isomer 2 [Example 15] | 140
4-(trans-2-((R)-4-isopropyl-2-methylpiperazine-1-carbonyl)cyclopropyl)benzamide, isomer 2 [Example 3] | 326
4-(trans-2-((S)-4-isopropyl-2-methylpiperazine-1-carbonyl)cyclopropyl)benzamide, isomer 2 [Example 6] | > 1110
CC[C@H]1CN(C2CCC2)CCN1C(=O)[C@H]1C[C@@H]1c1ccc(C(N)=O)cc1 (mixture of isomers) [Example 16, 4-(trans-2-((S)-4-cyclobutyl-2-ethylpiperazine-1-carbonyl)cyclopropyl)benzamide, diastereomeric mixture] | > 1110
C[C@H]1CN(C(=O)[C@H]2C[C@@H]2c2cccc(C(N)=O)c2)CCN1C1CCC1 (mixture of isomers) [Example 33, 3-(trans-2-((S)-4-cyclobutyl-3-methylpiperazine-1-carbonyl)cyclopropyl)benzamide, diastereomeric mixture] | 41
C[C@@H]1CN(C(=O)[C@H]2C[C@@H]2c2cccc(C(N)=O)c2)CCN1C1CCC1 (mixture of isomers) [Example 34, 3-(trans-2-((R)-4-cyclobutyl-3-methylpiperazine-1-carbonyl)cyclopropyl)benzamide, diastereomeric mixture] | 51.8
CC1(C)CN(C2CCC2)CCN1C(=O)[C@H]1C[C@@H]1c1ccc(C(N)=O)cc1 (racemic) [Example 23, 4-(trans-2-(4-cyclobutyl-2,2-dimethylpiperazine-1-carbonyl)cyclopropyl)benzamide, enantiomeric mixture] | > 1110

Now those with a lower IC50, led by results:

IC50 [nM] | Molecule
5.28 | 3-((trans)-2-((R)-4-cyclobutyl-2-methylpiperazine-1-carbonyl)cyclopropyl)benzamide, isomer 1 [Example 28]
6.96 | 3-((trans)-2-((S)-4-cyclobutyl-2-methylpiperazine-1-carbonyl)cyclopropyl)benzamide, isomer 1 [Example 31]
6.83 | 4-((trans)-2-((R)-4-cyclobutyl-3-methylpiperazine-1-carbonyl)cyclopropyl)benzamide, isomer 1 [Example 21]
5.77 | 4-((trans)-2-((S)-4-cyclobutyl-2-methylpiperazine-1-carbonyl)cyclopropyl)benzamide, isomer 1 [Example 11]
5.98 | 4-((trans)-2-((S)-4-cyclobutyl-3-methylpiperazine-1-carbonyl)cyclopropyl)benzamide, isomer 1 [Example 18]
12 | 4-(trans-2-(4-cyclobutyl-3,3-dimethylpiperazine-1-carbonyl)cyclopropyl)benzamide, enantiomer 1 [Example 25]
15.3 | 4-(trans-2-((R)-4-cyclobutyl-2-ethylpiperazine-1-carbonyl)cyclopropyl)benzamide, isomer 1 [Example 14]
5.66 | 4-(trans-2-((R)-4-isopropyl-2-methylpiperazine-1-carbonyl)cyclopropyl)benzamide, isomer 1 [Example 2]
8.54 | 4-(trans-2-((S)-4-isopropyl-2-methylpiperazine-1-carbonyl)cyclopropyl)benzamide, isomer 1 [Example 5]
7.48 | CC(C)N1CCN(C(=O)[C@H]2C[C@@H]2c2ccc(C(N)=O)cc2)[C@H](C)C1 (mixture of isomers) [Example 1, 4-(trans-2-((R)-4-isopropyl-2-methylpiperazine-1-carbonyl)cyclopropyl)benzamide, diastereomeric Mixture]
13.5 | CC(C)N1CCN(C(=O)[C@H]2C[C@@H]2c2ccc(C(N)=O)cc2)[C@@H](C)C1 (mixture of isomers) [Example 4, 4-(trans-2-((S)-4-isopropyl-2-methylpiperazine-1-carbonyl)cyclopropyl)benzamide, diastereomeric mixture]
8.82 | C[C@@H]1CN(C2CCC2)CCN1C(=O)[C@H]1C[C@@H]1c1ccc(C(N)=O)cc1 (mixture of isomers) [Example 7, 4-(trans-2-((R)-4-cyclobutyl-2-methylpiperazine-1-carbonyl)cyclopropyl)benzamide, diastereomeric mixture]
8.06 | C[C@H]1CN(C2CCC2)CCN1C(=O)[C@H]1C[C@@H]1c1ccc(C(N)=O)cc1 (mixture of isomers) [Example 10, 4-(trans-2-((S)-4-cyclobutyl-2-methylpiperazine-1-carbonyl)cyclopropyl)benzamide, diastereomeric mixture]
29.1 | CC[C@@H]1CN(C2CCC2)CCN1C(=O)[C@H]1C[C@@H]1c1ccc(C(N)=O)cc1 (mixture of isomers) [Example 13, 4-(trans-2-((R)-4-cyclobutyl-2-ethylpiperazine-1-carbonyl)cyclopropyl)benzamide, diastereomeric mixture]
14.2 | C[C@H]1CN(C(=O)[C@H]2C[C@@H]2c2ccc(C(N)=O)cc2)CCN1C1CCC1 (mixture of isomers) [Example 17, 4-(trans-2-((S)-4-cyclobutyl-3-methylpiperazine-1-carbonyl)cyclopropyl)benzamide, diastereomeric mixture]
8.74 | C[C@@H]1CN(C(=O)[C@H]2C[C@@H]2c2ccc(C(N)=O)cc2)CCN1C1CCC1 (mixture of isomers) [Example 20, 4-(trans-2-((R)-4-cyclobutyl-3-methylpiperazine-1-carbonyl)cyclopropyl)benzamide, diastereomeric mixture]
12 | C[C@@H]1CN(C2CCC2)CCN1C(=O)[C@H]1C[C@@H]1c1cccc(C(N)=O)c1 (mixture of isomers) [Example 27, 3-(trans-2-((R)-4-cyclobutyl-2-methylpiperazine-1-carbonyl)cyclopropyl)benzamide, diastereomeric mixture]
16.3 | C[C@H]1CN(C2CCC2)CCN1C(=O)[C@H]1C[C@@H]1c1cccc(C(N)=O)c1 (mixture of isomers) [Example 30, 3-(trans-2-((S)-4-cyclobutyl-2-methylpiperazine-1-carbonyl)cyclopropyl)benzamide, diastereomeric mixture]
15.9 | CC1(C)CN(C(=O)[C@H]2C[C@@H]2c2ccc(C(N)=O)cc2)CCN1C1CCC1 (racemic) [Example 24, 4-(trans-2-(4-cyclobutyl-3,3-dimethylpiperazine-1-carbonyl)cyclopropyl)benzamide, enantiomeric mixture]
4.94 | C[C@@H]1CN(C2CCC2)CCN1C(=O)[C@H]1C[C@@H]1c1ccc(C(N)=O)cc1 [Example 8, 4-((trans)-2-((R)-4-cyclobutyl-2-methylpiperazine-1-carbonyl)cyclopropyl)benzamide, isomer 1]
